{
  "source": "the supplement of paper PMC12463676",
  "about": "“Small-molecule dissolution of stress granules by redox modulation benefits ALS models” (Nature Chemical Biology, 2025);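 also: each temperature applied for 3 min, abundance score taken as mean log2 fold change at the two lowest temperatures, z-score obtained by mean subtraction and division by SD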",
  "data": [
    {"compound": "NC(=O)CCCCC1CCSS1 [lipoamide]", "test": "thermal stability z-score vs DMSO; higher = more thermally stabilized by treatment", "conditions": "HeLa; lipoamide concentration 100 µM; arsenate co-treatment: 1 mM arsenate 1 h", "experimental": "(§1)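 Cellular thermal proteome profiling in HeLa cells. Cells were treated with 100 µM lipoamide for 1 h, with or without 1 mM arsenate for a further 1 h, then heated to ten temperatures (37-66.3 °C), and soluble protein was quantified by TMT mass spectrometry relative to 0.1% DMSO controls. The thermal stability score (sum of log2 fold changes minus the abundance score) was transformed to a z-score; mean of n = 3 experiments.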", "values": [
      {"target": "ZC3H12A (UniProt Q5D1E8)", "thermal stability z-score": 0.0783},
      {"target": "MBOAT7 (UniProt Q96N66)", "sequence (Q96N66 whole entry)": "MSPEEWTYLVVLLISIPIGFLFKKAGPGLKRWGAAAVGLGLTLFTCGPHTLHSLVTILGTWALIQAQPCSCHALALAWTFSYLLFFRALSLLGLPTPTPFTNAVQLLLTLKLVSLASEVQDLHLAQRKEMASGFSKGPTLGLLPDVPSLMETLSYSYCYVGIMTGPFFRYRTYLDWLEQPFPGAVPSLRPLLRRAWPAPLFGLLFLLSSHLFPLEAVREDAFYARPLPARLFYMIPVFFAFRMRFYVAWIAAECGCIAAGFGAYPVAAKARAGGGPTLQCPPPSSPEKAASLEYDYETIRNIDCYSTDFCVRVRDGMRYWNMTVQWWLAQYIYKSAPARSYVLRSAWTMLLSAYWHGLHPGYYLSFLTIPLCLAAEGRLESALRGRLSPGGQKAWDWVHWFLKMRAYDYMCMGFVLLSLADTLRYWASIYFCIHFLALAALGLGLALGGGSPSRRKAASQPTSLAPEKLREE", "thermal stability z-score": -0.956},
      {"target": "NEXN (UniProt Q0ZGT2)", "thermal stability z-score": 0.00122},
      {"target": "TJAP1 (UniProt Q5JTD0)", "thermal stability z-score": -1.54},
      {"target": "ADAM17 (UniProt P78536)", "thermal stability z-score": -1.11},
      {"target": "VPS18 (UniProt Q9P253)", "thermal stability z-score": -0.401},
      {"target": "IGF1R (UniProt P08069)", "thermal stability z-score": 0.294},
      {"target": "SF3A1 (UniProt Q15459)", "sequence (Q15459 whole entry)": "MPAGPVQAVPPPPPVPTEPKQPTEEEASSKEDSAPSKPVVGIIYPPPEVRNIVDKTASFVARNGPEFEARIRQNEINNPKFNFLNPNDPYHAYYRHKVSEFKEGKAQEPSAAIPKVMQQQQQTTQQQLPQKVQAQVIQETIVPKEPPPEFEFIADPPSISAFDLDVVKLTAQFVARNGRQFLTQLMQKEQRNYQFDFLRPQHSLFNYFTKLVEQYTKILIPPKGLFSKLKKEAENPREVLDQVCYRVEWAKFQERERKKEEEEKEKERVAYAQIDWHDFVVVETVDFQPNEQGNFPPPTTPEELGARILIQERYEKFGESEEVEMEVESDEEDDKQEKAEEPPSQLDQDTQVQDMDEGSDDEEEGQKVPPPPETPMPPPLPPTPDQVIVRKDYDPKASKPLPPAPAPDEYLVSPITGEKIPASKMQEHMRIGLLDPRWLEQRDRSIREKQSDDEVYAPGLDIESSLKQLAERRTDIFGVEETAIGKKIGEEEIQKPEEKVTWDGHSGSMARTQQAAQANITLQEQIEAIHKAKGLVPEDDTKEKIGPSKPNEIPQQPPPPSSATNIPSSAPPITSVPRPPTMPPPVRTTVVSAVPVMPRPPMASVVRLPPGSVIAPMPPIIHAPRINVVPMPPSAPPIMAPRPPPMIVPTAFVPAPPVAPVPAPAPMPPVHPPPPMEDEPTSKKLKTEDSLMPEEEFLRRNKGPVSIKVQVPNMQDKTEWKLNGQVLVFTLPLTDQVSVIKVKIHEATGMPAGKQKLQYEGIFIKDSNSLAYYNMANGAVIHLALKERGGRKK", "thermal stability z-score": -0.152},
      {"target": "MMP15 (UniProt P51511)", "thermal stability z-score": -0.901},
      {"target": "SRP54 (UniProt P61011)", "sequence (P61011 whole entry)": "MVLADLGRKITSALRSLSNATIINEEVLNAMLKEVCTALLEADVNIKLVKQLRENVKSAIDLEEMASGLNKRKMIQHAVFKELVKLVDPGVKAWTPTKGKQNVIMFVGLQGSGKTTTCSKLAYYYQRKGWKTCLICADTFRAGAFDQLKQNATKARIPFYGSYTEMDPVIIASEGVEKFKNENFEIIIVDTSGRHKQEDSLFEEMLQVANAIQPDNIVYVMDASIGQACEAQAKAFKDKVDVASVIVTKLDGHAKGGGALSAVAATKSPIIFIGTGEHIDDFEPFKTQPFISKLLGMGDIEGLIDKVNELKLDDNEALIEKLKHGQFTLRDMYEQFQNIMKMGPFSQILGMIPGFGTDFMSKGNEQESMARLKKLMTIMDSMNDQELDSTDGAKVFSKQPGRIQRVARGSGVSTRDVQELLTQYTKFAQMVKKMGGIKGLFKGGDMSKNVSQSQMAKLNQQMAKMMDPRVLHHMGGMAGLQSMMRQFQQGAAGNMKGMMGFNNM", "thermal stability z-score": -0.193},
      {"target": "GDI2 (UniProt P50395)", "thermal stability z-score": 0.452},
      {"target": "MMAA (UniProt Q8IVH4)", "sequence (Q8IVH4 whole entry)": "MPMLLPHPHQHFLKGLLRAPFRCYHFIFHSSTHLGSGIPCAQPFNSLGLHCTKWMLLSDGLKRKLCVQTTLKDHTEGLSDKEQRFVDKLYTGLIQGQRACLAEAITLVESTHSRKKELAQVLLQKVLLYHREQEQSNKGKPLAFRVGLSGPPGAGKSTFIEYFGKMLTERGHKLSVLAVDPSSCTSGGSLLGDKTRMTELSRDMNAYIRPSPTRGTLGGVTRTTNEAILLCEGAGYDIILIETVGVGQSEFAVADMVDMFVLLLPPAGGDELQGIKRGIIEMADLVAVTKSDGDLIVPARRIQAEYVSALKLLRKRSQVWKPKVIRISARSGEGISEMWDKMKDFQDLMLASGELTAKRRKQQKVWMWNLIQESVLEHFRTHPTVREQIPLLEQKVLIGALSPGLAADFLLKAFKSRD", "thermal stability z-score": 0.33},
      {"target": "PDLIM7 (UniProt Q9NR12)", "thermal stability z-score": -0.856},
      {"target": "DRG1 (UniProt Q9Y295)", "thermal stability z-score": -0.143},
      {"target": "ACSS2 (UniProt Q9NR19)", "thermal stability z-score": 0.198},
      {"target": "PHKA1 (UniProt P46020)", "thermal stability z-score": -0.125},
      {"target": "DSCC1 (UniProt Q9BVC3)", "thermal stability z-score": 0.0551},
      {"target": "PHYHD1 (UniProt Q5SRE7)", "sequence (Q5SRE7 whole entry)": "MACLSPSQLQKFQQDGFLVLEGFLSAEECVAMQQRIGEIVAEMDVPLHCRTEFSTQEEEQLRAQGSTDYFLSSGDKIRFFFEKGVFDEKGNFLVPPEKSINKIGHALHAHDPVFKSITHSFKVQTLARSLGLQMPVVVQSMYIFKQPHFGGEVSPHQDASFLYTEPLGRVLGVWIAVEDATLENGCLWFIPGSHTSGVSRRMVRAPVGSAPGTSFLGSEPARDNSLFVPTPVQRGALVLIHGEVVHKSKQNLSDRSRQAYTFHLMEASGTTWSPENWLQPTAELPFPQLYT", "thermal stability z-score": -0.0705},
      {"target": "LSM2 (UniProt Q9Y333)", "thermal stability z-score": 0.00908},
      {"target": "COL5A1 (UniProt P20908)", "sequence (P20908 whole entry)": "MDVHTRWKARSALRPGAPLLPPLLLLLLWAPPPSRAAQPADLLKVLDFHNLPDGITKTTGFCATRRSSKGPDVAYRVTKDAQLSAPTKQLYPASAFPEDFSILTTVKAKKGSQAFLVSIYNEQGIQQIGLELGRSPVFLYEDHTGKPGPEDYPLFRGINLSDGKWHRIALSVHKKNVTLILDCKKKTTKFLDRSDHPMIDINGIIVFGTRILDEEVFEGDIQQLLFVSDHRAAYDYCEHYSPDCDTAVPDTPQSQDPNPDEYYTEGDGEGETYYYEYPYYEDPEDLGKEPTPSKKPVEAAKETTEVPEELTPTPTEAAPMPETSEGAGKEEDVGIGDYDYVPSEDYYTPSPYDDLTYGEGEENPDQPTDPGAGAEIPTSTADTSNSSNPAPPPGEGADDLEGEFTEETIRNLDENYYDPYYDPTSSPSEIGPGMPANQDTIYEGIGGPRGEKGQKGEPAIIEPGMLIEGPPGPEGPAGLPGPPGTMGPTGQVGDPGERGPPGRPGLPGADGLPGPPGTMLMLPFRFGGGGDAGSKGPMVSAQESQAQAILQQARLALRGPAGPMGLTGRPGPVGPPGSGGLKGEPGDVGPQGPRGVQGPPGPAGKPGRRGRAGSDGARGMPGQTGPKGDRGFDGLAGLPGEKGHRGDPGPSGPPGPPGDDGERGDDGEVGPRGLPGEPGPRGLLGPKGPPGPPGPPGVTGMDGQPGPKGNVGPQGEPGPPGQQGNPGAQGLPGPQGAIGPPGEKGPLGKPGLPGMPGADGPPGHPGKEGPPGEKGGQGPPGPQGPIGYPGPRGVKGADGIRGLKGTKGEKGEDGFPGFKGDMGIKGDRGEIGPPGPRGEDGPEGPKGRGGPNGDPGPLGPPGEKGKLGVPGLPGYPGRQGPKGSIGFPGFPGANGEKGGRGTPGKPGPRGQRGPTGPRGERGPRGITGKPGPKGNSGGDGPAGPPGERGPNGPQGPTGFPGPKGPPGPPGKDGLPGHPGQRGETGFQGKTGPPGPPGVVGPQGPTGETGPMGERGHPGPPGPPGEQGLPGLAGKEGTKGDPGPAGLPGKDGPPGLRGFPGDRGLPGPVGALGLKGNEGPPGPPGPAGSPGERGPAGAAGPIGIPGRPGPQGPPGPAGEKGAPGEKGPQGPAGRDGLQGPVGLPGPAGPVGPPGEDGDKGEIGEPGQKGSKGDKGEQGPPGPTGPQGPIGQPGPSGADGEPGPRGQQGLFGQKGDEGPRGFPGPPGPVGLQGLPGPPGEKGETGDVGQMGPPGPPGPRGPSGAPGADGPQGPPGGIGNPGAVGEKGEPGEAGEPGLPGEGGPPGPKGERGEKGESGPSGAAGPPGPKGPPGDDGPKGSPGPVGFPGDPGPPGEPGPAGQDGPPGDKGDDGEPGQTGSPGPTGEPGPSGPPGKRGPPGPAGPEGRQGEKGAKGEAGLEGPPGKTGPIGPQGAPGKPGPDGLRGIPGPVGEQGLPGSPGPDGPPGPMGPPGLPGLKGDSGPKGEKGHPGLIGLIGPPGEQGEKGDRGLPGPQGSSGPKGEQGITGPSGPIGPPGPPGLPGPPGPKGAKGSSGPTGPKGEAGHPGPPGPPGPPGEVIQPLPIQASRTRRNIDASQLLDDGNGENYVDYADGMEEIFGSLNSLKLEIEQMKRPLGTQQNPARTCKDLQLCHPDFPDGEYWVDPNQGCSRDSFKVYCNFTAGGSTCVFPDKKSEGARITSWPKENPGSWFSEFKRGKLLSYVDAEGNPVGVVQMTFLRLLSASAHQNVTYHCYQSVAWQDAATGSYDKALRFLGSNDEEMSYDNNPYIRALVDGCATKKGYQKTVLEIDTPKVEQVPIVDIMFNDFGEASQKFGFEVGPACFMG", "thermal stability z-score": -1.41},
      {"target": "UBE2A (UniProt P49459)", "thermal stability z-score": 0.343},
      {"target": "CRBN (UniProt Q96SW2)", "thermal stability z-score": 0.304},
      {"target": "EIF2B5 (UniProt Q13144)", "thermal stability z-score": -0.392},
      {"target": "CNP (UniProt P09543)", "thermal stability z-score": 1.14},
      {"target": "ORC3 (UniProt Q9UBD5)", "thermal stability z-score": -0.0418},
      {"target": "TRAPPC11 (UniProt Q7Z392)", "thermal stability z-score": -0.549},
      {"target": "CARS (UniProt P49589)", "sequence (P49589 whole entry)": "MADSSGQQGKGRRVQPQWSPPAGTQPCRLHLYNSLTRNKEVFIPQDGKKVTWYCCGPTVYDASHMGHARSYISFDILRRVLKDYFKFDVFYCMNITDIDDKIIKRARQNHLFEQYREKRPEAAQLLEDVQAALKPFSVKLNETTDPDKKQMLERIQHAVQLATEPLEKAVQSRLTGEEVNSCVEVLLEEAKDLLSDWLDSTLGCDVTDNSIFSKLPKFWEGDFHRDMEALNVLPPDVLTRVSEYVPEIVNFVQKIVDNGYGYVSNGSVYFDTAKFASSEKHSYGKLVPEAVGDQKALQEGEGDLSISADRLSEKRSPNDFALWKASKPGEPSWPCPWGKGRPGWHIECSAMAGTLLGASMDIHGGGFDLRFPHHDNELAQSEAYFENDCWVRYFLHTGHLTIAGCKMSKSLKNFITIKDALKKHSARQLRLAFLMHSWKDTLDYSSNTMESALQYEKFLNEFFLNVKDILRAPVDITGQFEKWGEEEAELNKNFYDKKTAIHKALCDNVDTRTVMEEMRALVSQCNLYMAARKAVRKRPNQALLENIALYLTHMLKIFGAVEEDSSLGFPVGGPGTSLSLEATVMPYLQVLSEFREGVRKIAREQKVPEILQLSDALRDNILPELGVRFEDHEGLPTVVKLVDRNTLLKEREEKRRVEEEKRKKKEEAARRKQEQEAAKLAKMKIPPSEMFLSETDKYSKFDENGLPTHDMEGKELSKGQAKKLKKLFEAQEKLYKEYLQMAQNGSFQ", "thermal stability z-score": -0.705},
      {"target": "DNAJB11 (UniProt Q9UBS4)", "thermal stability z-score": -2.65},
      {"target": "PPM1A (UniProt P35813)", "thermal stability z-score": 0.622},
      {"target": "PRKAR1A (UniProt P10644)", "thermal stability z-score": -0.101}
    ]},
    {"compound": "NC(=O)CCCCC1CCSS1 [lipoamide]", "test": "thermal stability z-score vs DMSO; higher = more thermally stabilized by treatment", "conditions": "HeLa; lipoamide concentration 100 µM; arsenate co-treatment: none", "experimental": "as §1", "values": [
      {"target": "ZC3H12A (UniProt Q5D1E8)", "thermal stability z-score": -0.187},
      {"target": "MBOAT7 (UniProt Q96N66)", "thermal stability z-score": -0.883},
      {"target": "NEXN (UniProt Q0ZGT2)", "thermal stability z-score": 0.037},
      {"target": "TJAP1 (UniProt Q5JTD0)", "thermal stability z-score": -0.576},
      {"target": "ADAM17 (UniProt P78536)", "thermal stability z-score": -0.994},
      {"target": "VPS18 (UniProt Q9P253)", "thermal stability z-score": -0.805},
      {"target": "IGF1R (UniProt P08069)", "thermal stability z-score": 0.324},
      {"target": "SF3A1 (UniProt Q15459)", "thermal stability z-score": 0.106},
      {"target": "MMP15 (UniProt P51511)", "thermal stability z-score": -0.632},
      {"target": "SRP54 (UniProt P61011)", "thermal stability z-score": 0.172},
      {"target": "GDI2 (UniProt P50395)", "thermal stability z-score": 0.275},
      {"target": "MMAA (UniProt Q8IVH4)", "thermal stability z-score": -0.0208},
      {"target": "PDLIM7 (UniProt Q9NR12)", "thermal stability z-score": -0.95},
      {"target": "DRG1 (UniProt Q9Y295)", "thermal stability z-score": -0.213},
      {"target": "ACSS2 (UniProt Q9NR19)", "thermal stability z-score": 0.512},
      {"target": "PHKA1 (UniProt P46020)", "thermal stability z-score": -0.051},
      {"target": "DSCC1 (UniProt Q9BVC3)", "thermal stability z-score": 0.0324},
      {"target": "PHYHD1 (UniProt Q5SRE7)", "thermal stability z-score": 0.173},
      {"target": "LSM2 (UniProt Q9Y333)", "thermal stability z-score": 0.0523},
      {"target": "COL5A1 (UniProt P20908)", "thermal stability z-score": -1.55},
      {"target": "UBE2A (UniProt P49459)", "thermal stability z-score": 0.172},
      {"target": "CRBN (UniProt Q96SW2)", "thermal stability z-score": -0.141},
      {"target": "EIF2B5 (UniProt Q13144)", "thermal stability z-score": 0.253},
      {"target": "CNP (UniProt P09543)", "thermal stability z-score": 0.855},
      {"target": "ORC3 (UniProt Q9UBD5)", "thermal stability z-score": -0.104},
      {"target": "TRAPPC11 (UniProt Q7Z392)", "thermal stability z-score": -1.8},
      {"target": "CARS (UniProt P49589)", "thermal stability z-score": -0.132},
      {"target": "DNAJB11 (UniProt Q9UBS4)", "thermal stability z-score": -2.51},
      {"target": "PPM1A (UniProt P35813)", "thermal stability z-score": 0.096},
      {"target": "PRKAR1A (UniProt P10644)", "thermal stability z-score": 0.167}
    ]},
    {"compound": "O=[As]([O-])(O)O.[K+] [potassium arsenate]", "test": "thermal stability z-score vs DMSO; higher = more thermally stabilized by treatment", "conditions": "HeLa; arsenate concentration 1 mM", "experimental": "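Cellular thermal proteome profiling in HeLa cells treated with 1 mM arsenate for 1 h (DMSO pretreatment), heated to ten temperatures (37-66.3 °C). Soluble protein was quantified by TMT mass spectrometry relative to DMSO controls; the thermal stability score was transformed to a z-score; mean of n = 3 experiments.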", "values": [
      {"target": "ZC3H12A (UniProt Q5D1E8)", "thermal stability z-score": -0.189},
      {"target": "MBOAT7 (UniProt Q96N66)", "thermal stability z-score": -0.732},
      {"target": "NEXN (UniProt Q0ZGT2)", "thermal stability z-score": 0.0665},
      {"target": "TJAP1 (UniProt Q5JTD0)", "thermal stability z-score": -0.0307},
      {"target": "ADAM17 (UniProt P78536)", "thermal stability z-score": -0.966},
      {"target": "VPS18 (UniProt Q9P253)", "thermal stability z-score": 0.788},
      {"target": "IGF1R (UniProt P08069)", "thermal stability z-score": 0.987},
      {"target": "SF3A1 (UniProt Q15459)", "thermal stability z-score": -1.3},
      {"target": "MMP15 (UniProt P51511)", "thermal stability z-score": -0.00399},
      {"target": "SRP54 (UniProt P61011)", "thermal stability z-score": 0.715},
      {"target": "GDI2 (UniProt P50395)", "thermal stability z-score": -0.47},
      {"target": "MMAA (UniProt Q8IVH4)", "thermal stability z-score": -1.04},
      {"target": "PDLIM7 (UniProt Q9NR12)", "thermal stability z-score": -1.12},
      {"target": "DRG1 (UniProt Q9Y295)", "thermal stability z-score": 0.121},
      {"target": "ACSS2 (UniProt Q9NR19)", "thermal stability z-score": -0.517},
      {"target": "PHKA1 (UniProt P46020)", "thermal stability z-score": 0.0887},
      {"target": "DSCC1 (UniProt Q9BVC3)", "thermal stability z-score": -0.199},
      {"target": "PHYHD1 (UniProt Q5SRE7)", "thermal stability z-score": 0.196},
      {"target": "LSM2 (UniProt Q9Y333)", "thermal stability z-score": -0.136},
      {"target": "COL5A1 (UniProt P20908)", "thermal stability z-score": 0.375},
      {"target": "UBE2A (UniProt P49459)", "thermal stability z-score": -0.0388},
      {"target": "CRBN (UniProt Q96SW2)", "thermal stability z-score": -0.0801},
      {"target": "EIF2B5 (UniProt Q13144)", "thermal stability z-score": 0.878},
      {"target": "CNP (UniProt P09543)", "thermal stability z-score": -0.287},
      {"target": "ORC3 (UniProt Q9UBD5)", "thermal stability z-score": -0.00481},
      {"target": "TRAPPC11 (UniProt Q7Z392)", "thermal stability z-score": -0.537},
      {"target": "CARS (UniProt P49589)", "thermal stability z-score": -0.416},
      {"target": "DNAJB11 (UniProt Q9UBS4)", "thermal stability z-score": 0.319},
      {"target": "PPM1A (UniProt P35813)", "thermal stability z-score": -0.154},
      {"target": "PRKAR1A (UniProt P10644)", "thermal stability z-score": -0.065}
    ]}
  ]
}
